Experimental data taken from US20210299268A1, “ANTIBODY-ALK5 INHIBITOR CONJUGATES AND THEIR USES” (Synthis Therapeutics, Inc., priority 2018, published 2021).
Like-named read-outs stand apart in the source and are kept apart here.

Key:
[1] = test system: TGF-β-induced luciferase activity in HEK293T cells; assay: TGF-β-induced SMAD luciferase reporter assay in HEK293T cells; type: cell-based, human; conditions: HEK-293T
Protocol: Compounds A-D were tested to determine whether they could inhibit TGF-β-induced luciferase activity in HEK293T cells in vitro.
30,000 HEK293T cells were seeded in a 96 well white flat bottom plate overnight. The next day 100 ng of a SMAD luciferase reporter plasmid per well was transfected into the cells using lipofectamine for 24 hours. The next day cells were treated with Compounds A-D and 100 pM TGFβ for 24 hours. Luciferase activity was measured using the Dual-Glo® luciferase assay kit (Promega). The assay was run twice for Compounds A, B, and D, and three times for Compound C.

[2] = test system: primary mouse CD4+ T cells; assay: MTS proliferation assay; type: cell-based
Protocol: Compounds A-D were tested to determine whether they could inhibit TGF-β signaling in primary mouse CD4^+ T cells.
Primary mouse CD4^+ T cells were isolated from the spleens of C57/B6 mice using the RoboSep™ cell isolation system (Stemcell Technologies). 0.5 μg/ml of hamster anti-mouse CD3e antibody (145-2C11; eBioscience) was coated onto a 96 well flat bottom plate overnight. 1×10^5 purified CD4^+ T cells were incubated with 1 μg/ml soluble hamster anti-mouse CD28 antibody (37.51, BD Biosciences), 1 nM TGF-β1 and 8-fold serial dilutions of Compounds A-D. After 72 hours, cell proliferation was measured using an MTS assay (Promega) in accordance with the manufacturer's instructions.

ALK5 = target: T1, ALK5 (Homo sapiens, UniProt P36897); assay: recombinant kinase assays; type: biochemical
T1 sequence (P36897 34-503): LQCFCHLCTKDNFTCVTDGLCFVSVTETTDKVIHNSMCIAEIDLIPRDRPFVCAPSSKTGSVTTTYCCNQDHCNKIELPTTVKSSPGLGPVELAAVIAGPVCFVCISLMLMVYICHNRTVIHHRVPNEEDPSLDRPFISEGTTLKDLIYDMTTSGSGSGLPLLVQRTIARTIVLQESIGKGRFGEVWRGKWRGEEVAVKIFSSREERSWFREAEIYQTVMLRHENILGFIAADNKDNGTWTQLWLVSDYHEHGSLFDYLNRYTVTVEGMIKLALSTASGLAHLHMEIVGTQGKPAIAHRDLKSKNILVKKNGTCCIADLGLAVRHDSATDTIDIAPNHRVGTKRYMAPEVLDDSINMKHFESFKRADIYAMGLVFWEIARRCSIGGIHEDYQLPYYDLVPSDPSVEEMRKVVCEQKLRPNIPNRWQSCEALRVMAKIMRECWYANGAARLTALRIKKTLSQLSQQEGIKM
From the text: Compound N was compared to Compound C in a number of in vitro assays.

[3] = Kinase = 1.5 nM, read-out: IC50 (nM) (Kinase = 1.5 nM)
[4] = Kinase = 25 nM, read-out: IC50 (nM) (Kinase = 25 nM)
[5] = Morrison equat/ 5 uM ATP, read-out: Ki (nM) (Morrison equat/ 5 uM ATP)
[6] = Steady state equation, read-out: Ki (nM) (Steady state equation)

Q: What does the source list for `CNCCOc1ccc(-c2cc(-c3c[nH]nc3-c3cccc(C)n3)ccn2)cc1` [Compound C, N-methyl-2-(4-(4-(3-(6-methylpyridin-2-yl)-1H-pyrazol-4-yl)pyridin-2-yl)phenoxy)ethan-1-amine]?
A: IC50 ([1]; summary value, human HEK cells, read-out: HEK Luciferase Assay): 0.0117 µM; IC50 ([1]; Homo sapiens, Experiment 1, 100 pM TGFβ, 24 hours, read-out: Experiment 1 IC50): 0.0101 µM; effect on TGFβ-mediated inhibition of T cell proliferation ([2]; 1 nM TGF-β1, 72 hours): reversed TGFβ-mediated inhibition of T cell proliferation; IC50 ([2]; CD4+ T, summary value, mouse T cells, read-out: Mouse T cell proliferation assay): 0.026 µM; fold more potent than Compound N in the recombinant assays (ALK5): 10 fold; IC50 (ALK5; [3]): 1.8 nM; IC50 (ALK5; [4]): 10 nM; Ki (ALK5; [5]): 0.11 nM; Ki (ALK5; [6]): 2.25 nM

Q: How did the “effect on TGFβ-mediated inhibition of T cell proliferation” value (shortened to “effect on TGFβ-mediated inhibition”) ([2]; 1 nM TGF-β1, 72 hours) turn out when `Cc1cccc(-c2nc(N)sc2-c2ccc3ncccc3n2)n1` [Compound A, 4-(6-methylpyridin-2-yl)-5-(1,5-naphthyridin-2-yl)thiazol-2-amine] was run?
A: did not show consistent effects

Q: And the “Experiment 1 IC50 (nM)” value ([2]; 1 nM TGF-β1, 72 hours)?
A: Value not obtained

Q: For `CNCCOc1ccc(-c2cc(-c3c[nH]nc3-c3ccccn3)ccn2)cc1` [Compound B, N-methyl-2-(4-(4-(3-(pyridin-2-yl)-1H-pyrazol-4-yl)pyridin-2-yl)phenoxy)ethan-1-amine], which “effect on TGFβ-mediated inhibition” value ([2]; 1 nM TGF-β1, 72 hours) is on record?
A: reversed TGFβ-mediated inhibition of T cell proliferation

Q: Which “effect on TGFβ-mediated inhibition” value ([2]; 1 nM TGF-β1, 72 hours) does the source give for `CCNC(=O)c1ccc2c(c1)NC(=O)/C2=C(\Nc1ccc(N(CCNC)S(C)(=O)=O)cc1)c1ccccc1` [Compound D, (Z)-N-ethyl-3-(((4-(N-(2-(methylamino)ethyl)methylsulfonamido)phenyl)amino)(phenyl)methylene)-2-oxoindoline-6-carboxamide] here?
A: not obtained

Q: And the “Experiment 1 IC50 (nM)” value ([2]; 1 nM TGF-β1, 72 hours)?
A: Value not obtained

Q: And the “Experiment 2 IC50 (nM)” value ([2]; Experiment 2, 1 nM TGF-β1, 72 hours)?
A: Value not obtained

Q: What does the source list for `CCc1cc(-c2ccc3ncnc(N)c3c2)n(-c2cccc(C)n2)n1` [Compound N]?
A: IC50 (ALK5; [3]): 12 nM; IC50 (ALK5; [4]): 18 nM; Ki (ALK5; [5]): 2.1 nM; Ki (ALK5; [6]): 18.4 nM
